Results on 1 molecule are retold here after US20230115534A1 (ARKUDA THERAPEUTICS, priority 2019, published 2023).

In general, EC50 refers to the concentration needed to bring the measured effect to its halfway point. Low values mean a more potent agent, high ones a less potent agent.

This test has as its system progranulin (PGRN). The test is described as follows: progranulin induction cellular assay (PGRN assay), ELISA-based readout. The following applies: PGRN assay as described: mouse primary microglia, primary cortical neurons and BV-2 cell lines; secreted mouse PGRN in medium by ELISA; cell type for Table B not specified. On the technique in general: ELISA stands for enzyme-linked immunosorbent assay.

With `N[C@]1(CO)C[C@H](C(=O)N2CCc3ccccc3[C@@H]2c2ccc(F)cc2)C1` [Compound 4151, (cis-3-amino-3-(hydroxymethyl)cyclobutyl)((S)-1-(4-fluorophenyl)-3,4-dihydroisoquinolin-2(1H)-yl)methanone], the concentration giving a half-maximal response (EC50) worked out at 83 nM.
